Experimental data reported in publication PMC10066226, “An ultra-high-throughput screen for the evaluation of peptide HLA-Binder interactions” (Scientific Reports, 2023).

These sequences were tested against model TCER IMAHiAff#1 (assay: BLI measurements (Octet RED384) of peptide-loaded disulfide-stabilized pHLA). Conditions: not given.
Format: binding
Excerpt: In order to confirm our results obtained from the ultra high throughput highSCORE measurements, we compared the KD values with the corresponding ones from BLI measurements (Fig. 4). The direct correlation between the two methods can be described as a hockey stick. Many peptides with single amino acid mutations show similar KD values as the WT peptide. This is especially the case for KD values obtained from the highSCORE measurements. Within the BLI data set, most of the library peptides show a higher KD value compared to the corresponding WT peptide (Fig. 4a). This relation results in a flat region within the correlation plot. All other peptide, with the exception of the ones highlighted with an arrow, show a good linear correlation between both data sets. It is important to note that while the spectroscopic principle behind BLI and highSCORE is similar, the experimental procedure is different. Using BLI, the pHLA complexes are bound to a sensor tip, which is dipped into a microtiter plate well containing the analyte. Thereafter, the sensor tip is wiggled within the well to ensure that the analyte is not depleted on the surface. In contrast, during a highSCORE measurement, the analyte is flushed over the microarray using a thin flow chamber. This makes the experimental procedure of a highSCORE measurement more similar to that of an SPR device. Consequently, differences in the KD values between BLI and highSCORE measurements are to be expected and might explain the shift in the overall distribution of the KD values (Fig. 4b). […] Since both measurement methods have their own advantages and disadvantages, it is difficult to tell which of the two methods provides the values that are closest to reality.
BLI measurements were performed on an Octet RED384 system using anti-Penta-His biosensors. In short, disulfide-stabilized molecules were refolded and peptide-loaded as previously described. All analytes or ligands were diluted to their final concentration in kinetics buffer (PBS, 0.1% BSA, 0.05% Tween-20) if not specified otherwise. All biosensors were hydrated for at least 10 minutes in kinetics buffer before use. Loadings and measurements were performed in 384 tilted well plates (Pall Fortébio) with at least 40 μ l at a 3 mm sensor offset. Plate temperature was set at 30 ^∘ C and shaker speed at 1000 rpm. To generate a baseline, sensors were dipped in kinetics buffer for 60 s before being loaded with 10 ug/ml of peptide loaded disulfide-stabilized pHLA for 120 s. Afterwards, a second 120 s baseline was recorded before a 60 s association and a 240 s dissociation phase. After individual measurements, sensors were regenerated using 10 mM Glycine pH 1.5 4 times for 5s each before another cycle was performed. 4 TCER concentrations (500nM, 158.1nM, 50nM and 15.8nM) were measured for each pHLA complex. A sensor loaded with an irrelevant pHLA was measured in line for reference sensor subtraction. All sensorgrams were analyzed using the OctetRED software “Data Analysis HT” version 11.0.0.50 (Pall Fortébio). Raw sensor data was aligned at the Y axis by aligning the data to the end of the baseline step, and inter-step correction was used to align the start of the dissociation to the end of the association phase. Savitzky-Golay filtering was applied. Resulting sensorgrams were then fitted using a 1:1 Langmuir kinetics binding model. In case of lower affinity binding events, the lower two concentrations were excluded from the fitting.
With SLLQHLIWL [W8] the BLI_KD was “no fit”.
With SLLQHLIFL [F8] the BLI_KD was “no fit”.
With SLLQHLDGL [D7] the BLI_KD was “no fit”.
With SLLQHLEGL [E7] the BLI_KD was “no fit”.

Same assay, conditions: std in a column of its own
With SLLQHLWGL [W7] the BLI_KD was “no fit”.
SLLQHPIGL [P6] was tested, and the BLI_KD was “no fit”.
